In ChEMBL document CHEMBL5380782, “Design, Biological Evaluation, and Computer-Aided Analysis of Dihydrothiazepines as Selective Antichlamydial Agents” (J Med Chem, 2023):

Tests used:
[1] = Mutagenicity in Salmonella typhimurium TA98 assessed as mutagenic index ratio at 500 ug pretreated for 90 mins measured after 66 hrs by AMES test; assay type: toxicity, Salmonella enterica subsp. enterica serovar Typhimurium; settings: in vivo, 67.5 h, dose 500 µg
Anaerostipes caccae = experiment: Antimicrobial activity against Anaerostipes caccae […] assessed as microbial growth inhibition incubated for 48 hrs; assay type: functional
Staphylococcus aureus = experiment: Antimicrobial activity against Staphylococcus aureus USA 300 JE2 assessed as microbial growth inhibition incubated for 24 hrs by TTC staining based assay; assay type: functional
[2] = Mutagenicity in Salmonella typhimurium TA100 assessed as number of revertants per plate at 500 ug pretreated for 90 mins measured after 66 hrs in presence of S9 by AMES test (reference value: 201 +/- 9.90); assay type: toxicity, Salmonella enterica subsp. enterica serovar Typhimurium; settings: in vivo, 67.5 h, dose 500 µg
[3] = Cytotoxicity against HEp-2 cells assessed as cell viability at 256 ug/ml incubated for 20 hrs by XTT assay relative to control; assay type: toxicity, cell-based; settings: human, at 256 µg/mL, read-out: Activity
Pseudomonas aeruginosa = experiment: Antimicrobial activity against Pseudomonas aeruginosa PA01 assessed as microbial growth inhibition incubated for 24 hrs by TTC staining based assay; assay type: functional
[4] = Stability of compound in simulated gastric fluid assessed as compound remaining at 2 mg/ml measured after 180 mins by HPLC analysis; assay type: ADME; settings: read-out: Stability
Blautia producta = experiment: Antimicrobial activity against Blautia producta DSM 2950 assessed as microbial growth inhibition incubated for 48 hrs; assay type: functional
[5] = Mutagenicity in Salmonella typhimurium TA100 assessed as mutagenic index ratio at 1500 ug pretreated for 90 mins measured after 66 hrs by AMES test; assay type: toxicity, Salmonella enterica subsp. enterica serovar Typhimurium; settings: in vivo, 67.5 h, dose 1500 µg
[6] = Mutagenicity in Salmonella typhimurium TA98 assessed as number of revertants per plate at 5000 ug pretreated for 90 mins measured after 66 hrs by AMES test (reference value: 25.67 +/- 5.51); assay type: toxicity, Salmonella enterica subsp. enterica serovar Typhimurium; settings: in vivo, 67.5 h, dose 5000 µg
Escherichia coli [7] = experiment: Antimicrobial activity against non-pathogenic Escherichia coli ATCC MG1655 assessed as microbial growth inhibition incubated for 24 hrs by TTC staining based assay; assay type: functional
[8] = Mutagenicity in Salmonella typhimurium TA100 assessed as number of revertants per plate at 500 ug pretreated for 90 mins measured after 66 hrs by AMES test (reference value: 206 +/- 7.07); assay type: toxicity, Salmonella enterica subsp. enterica serovar Typhimurium; settings: in vivo, 67.5 h, dose 500 µg
[9] = Mutagenicity in Salmonella typhimurium TA100 assessed as mutagenic index ratio at 1500 ug pretreated for 90 mins measured after 66 hrs in presence of S9 by AMES test; assay type: toxicity, Salmonella enterica subsp. enterica serovar Typhimurium; settings: in vivo, 67.5 h, dose 1500 µg
[10] = Mutagenicity in Salmonella typhimurium TA98 assessed as mutagenic index ratio at 5000 ug pretreated for 90 mins measured after 66 hrs in presence of S9 fraction by AMES test; assay type: toxicity, subcellular, Salmonella enterica subsp. enterica serovar Typhimurium; settings: s9, 67.5 h, dose 5000 µg
Candida tropicalis = experiment: Antimicrobial activity against Candida tropicalis 750 assessed as microbial growth inhibition by broth microdilution method; assay type: functional
[11] = Mutagenicity in Salmonella typhimurium TA98 assessed as number of revertants per plate at 1500 ug pretreated for 90 mins measured after 66 hrs by AMES test (reference value: 25.67 +/- 5.51); assay type: toxicity, Salmonella enterica subsp. enterica serovar Typhimurium; settings: in vivo, 67.5 h, dose 1500 µg
[12] = Cytotoxicity against HEK293 cells assessed as cell viability at 25 ug/ml incubated for 20 hrs by XTT assay relative to control; assay type: toxicity, cell-based; settings: human, at 25 µg/mL, read-out: Activity
[13] = Mutagenicity in Salmonella typhimurium TA98 assessed as mutagenic index ratio at 150 ug pretreated for 90 mins measured after 66 hrs in presence of S9 fraction by AMES test; assay type: toxicity, subcellular, Salmonella enterica subsp. enterica serovar Typhimurium; settings: s9, 67.5 h, dose 150 µg
[14] = Mutagenicity in Salmonella typhimurium TA98 assessed as number of revertants per plate at 150 ug pretreated for 90 mins measured after 66 hrs in presence of S9 fraction by AMES test (reference value: 24.33 +/- 9.50); assay type: toxicity, subcellular, Salmonella enterica subsp. enterica serovar Typhimurium; settings: s9, 67.5 h, dose 150 µg
[15] = Stability of compound in human serum assessed as compound remaining at 2 mg/ml measured after 180 mins by HPLC analysis; assay type: ADME, cell-free; settings: read-out: Stability
[16] = Mutagenicity in Salmonella typhimurium TA98 assessed as number of revertants per plate at 1500 ug pretreated for 90 mins measured after 66 hrs in presence of S9 fraction by AMES test (reference value: 24.33 +/- 9.50); assay type: toxicity, subcellular, Salmonella enterica subsp. enterica serovar Typhimurium; settings: s9, 67.5 h, dose 1500 µg
[17] = Mutagenicity in Salmonella typhimurium TA98 assessed as number of revertants per plate at 50 ug pretreated for 90 mins measured after 66 hrs by AMES test (reference value: 25.67 +/- 5.51); assay type: toxicity, Salmonella enterica subsp. enterica serovar Typhimurium; settings: in vivo, 67.5 h, dose 50 µg
Pichia kudriavzevii = experiment: Antimicrobial activity against Pichia kudriavzevii 6558 assessed as microbial growth inhibition by broth microdilution method; assay type: functional
[18] = Mutagenicity in Salmonella typhimurium TA100 assessed as mutagenic index ratio at 500 ug pretreated for 90 mins measured after 66 hrs in presence of S9 by AMES test; assay type: toxicity, Salmonella enterica subsp. enterica serovar Typhimurium; settings: in vivo, 67.5 h, dose 500 µg
[19] = Mutagenicity in Salmonella typhimurium TA98 assessed as mutagenic index ratio at 1500 ug pretreated for 90 mins measured after 66 hrs in presence of S9 fraction by AMES test; assay type: toxicity, subcellular, Salmonella enterica subsp. enterica serovar Typhimurium; settings: s9, 67.5 h, dose 1500 µg
[20] = Stability of compound in human serum assessed as compound remaining at 2 mg/ml measured after 24 hrs by HPLC analysis; assay type: ADME, cell-free; settings: read-out: Stability
[21] = Mutagenicity in Salmonella typhimurium TA100 assessed as number of revertants per plate at 5000 ug pretreated for 90 mins measured after 66 hrs by AMES test (reference value: 206 +/- 7.07); assay type: toxicity, Salmonella enterica subsp. enterica serovar Typhimurium; settings: in vivo, 67.5 h, dose 5000 µg
Nakaseomyces glabratus = experiment: Antimicrobial activity against Candida glabrata 2001 assessed as microbial growth inhibition by broth microdilution method; assay type: functional
[22] = Mutagenicity in Salmonella typhimurium TA100 assessed as number of revertants per plate at 1500 ug pretreated for 90 mins measured after 66 hrs by AMES test (reference value: 206 +/- 7.07); assay type: toxicity, Salmonella enterica subsp. enterica serovar Typhimurium; settings: in vivo, 67.5 h, dose 1500 µg
[23] = Mutagenicity in Salmonella typhimurium TA100 assessed as mutagenic index ratio at 150 ug pretreated for 90 mins measured after 66 hrs by AMES test; assay type: toxicity, Salmonella enterica subsp. enterica serovar Typhimurium; settings: in vivo, 67.5 h, dose 150 µg
[24] = Cytotoxicity against HEC-1-A cells assessed as cell survival at 256 ug/ml incubated for 20 hrs by XTT assay relative to control; assay type: toxicity, cell-based; settings: human, at 256 µg/mL, read-out: Survival
[25] = Mutagenicity in Salmonella typhimurium TA100 assessed as mutagenic index ratio at 50 ug pretreated for 90 mins measured after 66 hrs by AMES test; assay type: toxicity, Salmonella enterica subsp. enterica serovar Typhimurium; settings: in vivo, 67.5 h, dose 50 µg
[26] = Mutagenicity in Salmonella typhimurium TA98 assessed as number of revertants per plate at 5000 ug pretreated for 90 mins measured after 66 hrs in presence of S9 fraction by AMES test (reference value: 24.33 +/- 9.50); assay type: toxicity, subcellular, Salmonella enterica subsp. enterica serovar Typhimurium; settings: s9, 67.5 h, dose 5000 µg
Escherichia coli [27] = experiment: Antimicrobial activity against Escherichia coli K12 assessed as microbial growth inhibition incubated for 24 hrs by TTC staining based assay; assay type: functional

SMILES: N#Cc1ccccc1C1Sc2ccccc2NC2=C1C(=O)c1ccccc12 (centres undefined)
- Ratio [1]: 1.48
- MIC (Anaerostipes caccae): > 125 µg/mL
- MIC (Staphylococcus aureus): > 125 µg/mL
- Activity [2]: 191.5
- viability at 20 h, 256 ug/ml [3]: 50%
- MIC (Pseudomonas aeruginosa): > 125 µg/mL
- remaining at 3 h, 2 mg/ml [4]: 90%
- MIC (Blautia producta): > 125 µg/mL
- Ratio [5]: 1.16
- Activity [6]: 37.5
- MIC (Escherichia coli [7]): > 125 µg/mL
- Activity [8]: 233
- Ratio [9]: 0.98
- Ratio [10]: 1.78
- MIC (Candida tropicalis): > 1000 µg/mL
- Activity [11]: 39
- viability at 20 h, 25 ug/ml [12]: 84%
- Ratio [13]: 1.43
- Activity [14]: 35
- remaining at 3 h, 2 mg/ml [15]: 100%
- Activity [16]: 30.5
- Activity [17]: 26
- MIC (Pichia kudriavzevii): > 1000 µg/mL
- Ratio [18]: 0.95
- Ratio [19]: 1.25
- remaining at 24 h, 2 mg/ml [20]: 80%
- Activity [21]: 241
- MIC (Nakaseomyces glabratus): > 1000 µg/mL
- Activity [22]: 241
- Ratio [23]: 0.91
- viability at 20 h, 256 ug/ml [24]: ≥ 75%
- Ratio [25]: 0.92
- Activity [26]: 43.5
- MIC (Escherichia coli [27]): > 125 µg/mL
